The record followed here is patent publication US11866450B2, “Modulators of Cystic Fibrosis Transmembrane Conductance regulator, pharmaceutical compositions, methods of treatment, and process for making the modulators” (priority 2018, dated 2024).

For series [1], the target named is CFTR-mediated chloride transport (Homo sapiens, UniProt P13569). Type of series: cell-based. The settings on record: enteroid cells incubated with test compound 18-24 hours, acute 10 μM forskolin and 300 nM Compound III; for Max. Activity: % of chloride transport with 3 μM Compound A, 3 μM Compound II and 300 nM acute Compound III triple combination control. The procedure, abridged:
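Human intestinal enteroid cells incubated with compound 18–24 h at 37° C., then membrane potential dye (FLIPR) read 15 min after chloride-free stimulation with 10 μM forskolin, 100 μM IBMX and 300 nM Compound III. AUC expressed as % of triple-combination control (3 μM Compound A, 3 μM Compound II, 300 nM Compound III).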

The conditions of series [2]: snar bond.

Like-named read-outs stand apart in the source and are kept apart here.

Sequence of CFTR-mediated chloride transport (P13569 whole entry, looked up): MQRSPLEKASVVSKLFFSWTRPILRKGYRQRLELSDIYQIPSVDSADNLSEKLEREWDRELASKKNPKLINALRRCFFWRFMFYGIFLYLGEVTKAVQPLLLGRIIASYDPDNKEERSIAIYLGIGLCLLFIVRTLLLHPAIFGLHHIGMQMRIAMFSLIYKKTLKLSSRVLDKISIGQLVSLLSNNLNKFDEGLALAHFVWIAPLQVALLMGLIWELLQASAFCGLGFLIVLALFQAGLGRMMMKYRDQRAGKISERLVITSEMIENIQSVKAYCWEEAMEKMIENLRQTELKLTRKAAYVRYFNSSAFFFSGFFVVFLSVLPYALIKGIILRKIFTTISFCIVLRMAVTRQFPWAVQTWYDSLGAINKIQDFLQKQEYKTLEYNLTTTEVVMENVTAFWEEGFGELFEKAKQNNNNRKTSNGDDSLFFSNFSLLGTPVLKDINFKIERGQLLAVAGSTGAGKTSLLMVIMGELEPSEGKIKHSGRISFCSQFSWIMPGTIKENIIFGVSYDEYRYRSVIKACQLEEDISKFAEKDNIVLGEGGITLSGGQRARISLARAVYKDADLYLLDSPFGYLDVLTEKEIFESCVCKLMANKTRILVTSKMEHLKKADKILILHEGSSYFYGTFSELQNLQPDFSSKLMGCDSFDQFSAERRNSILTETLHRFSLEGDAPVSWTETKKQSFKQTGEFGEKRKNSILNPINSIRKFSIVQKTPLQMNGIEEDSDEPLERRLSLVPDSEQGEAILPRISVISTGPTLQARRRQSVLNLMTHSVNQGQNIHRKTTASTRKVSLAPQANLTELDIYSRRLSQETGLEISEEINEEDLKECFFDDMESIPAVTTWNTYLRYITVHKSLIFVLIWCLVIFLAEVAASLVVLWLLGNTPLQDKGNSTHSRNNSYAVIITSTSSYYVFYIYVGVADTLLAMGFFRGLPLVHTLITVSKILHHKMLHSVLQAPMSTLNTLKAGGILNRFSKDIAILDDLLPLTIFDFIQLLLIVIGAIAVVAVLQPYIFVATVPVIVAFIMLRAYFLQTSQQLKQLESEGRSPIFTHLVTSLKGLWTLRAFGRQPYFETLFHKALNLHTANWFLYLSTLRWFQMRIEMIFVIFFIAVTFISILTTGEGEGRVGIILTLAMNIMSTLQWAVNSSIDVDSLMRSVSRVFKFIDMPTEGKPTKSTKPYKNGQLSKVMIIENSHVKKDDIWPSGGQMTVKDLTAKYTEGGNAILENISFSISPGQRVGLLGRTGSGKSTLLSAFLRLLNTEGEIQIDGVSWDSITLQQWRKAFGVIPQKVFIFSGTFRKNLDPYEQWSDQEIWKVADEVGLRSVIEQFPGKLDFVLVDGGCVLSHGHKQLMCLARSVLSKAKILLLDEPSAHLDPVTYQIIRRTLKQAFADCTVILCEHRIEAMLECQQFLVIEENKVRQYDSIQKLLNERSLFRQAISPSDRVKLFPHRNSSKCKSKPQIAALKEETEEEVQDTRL

In the case of `Cc1cc2nn1CCCC1CN(c3nc(-n4ccc(OCCC5(C(F)(F)F)CC5)n4)ccc3C(=O)NS2(=O)=O)C(C)(C)C1` (stereo not drawn) [Compound 144, 13,20,20-Trimethyl-4-(3-{2-[1-(trifluoromethyl)cyclopropyl]ethoxy}-1H-pyrazol-1-yl)-10λ^6-thia-1,3,9,14,22-pentaazatetracyclo[16.2.1.111,14.02,7]docosa-2,4,6,11(22),12-pentaene-8,10,10-trione], in series [1], the EC50 was < 1000 nM and the “Max. Activity” value is recorded as “++ (++ is 30-60%)”. Also, in series [2] (from Cc1cc(S(=O)(=O)NC(=O)c2ccc(-n3ccc(OCCC4(C(F)(F)F)CC4)n3)nc2Cl)nn1CCCC1CN(C(=O)OC(C)(C)C)C(C)(C)C1, 14-membered ring, K2CO3/CsF/3A MS, DMSO, 44.1 mM, 155.0 °C, 2 steps), the ring closure, isolated yield amounted to 38%.
As to `CC1(C)C[C@@H]2CCCNc3cccc(n3)S(=O)(=O)NC(=O)c3ccc(-n4ccc(OCCCC5(C(F)(F)F)CC5)n4)nc3N1C2` [Compound 161, (14S)-12,12-dimethyl-8-(3-{3-[1-(trifluoromethyl)cyclopropyl]propoxy}-1H-pyrazol-1-yl)-2λ^6-thia-3,9,11,18,23-pentaazatetracyclo[17.3.1.111,14.05,10]tetracosa-1(22),5,7,9,19(23),20-hexaene-2,2,4-trione], in series [1], the EC50 is < 1000 nM and the “Max. Activity” value is on record as “+++ (+++ is >60%)”. Further, the ring closure, isolated yield in series [2] (from 2-chloro-N-[[6-[3-[(3S)-5,5-dimethylpyrrolidin-3-yl]propylamino]-2-pyridyl]sulfonyl]-6-[3-[3-[1-(trifluoromethyl)cyclopropyl]propoxy]pyrazol-1-yl]pyridine-3-carboxamide (dihydrochloride salt), 15-membered ring, K2CO3/CsF, NMP, 83.9 mM, 150.0 °C) turned out to be 55%.
Regarding `CC1(C)CC2CCCn3ccc(n3)S(=O)(=O)NC(=O)c3ccc(-n4ccc(OCCC5C6(CC6)C56CC6)n4)nc3N1C2` (stereo not drawn) [Compound 176, 4-[3-(2-{dispiro[2.0.2.1]heptan-7-yl}ethoxy)-1H-pyrazol-1-yl]-20,20-dimethyl-10λ^6-thia-1,3,9,14,22-pentaazatetracyclo[16.2.1.111,14.02,7]docosa-2,4,6,11(22),12-pentaene-8,10,10-trione], in series [1], the EC50 is < 1000 nM and the “Max. Activity” value is “+++ (+++ is >60%)”. This compound also gave a ring closure, isolated yield in series [2] (from CC1(C)CC(CCCn2ccc(S(=O)(=O)NC(=O)c3ccc(-n4ccc(OCCC5C6(CC6)C56CC6)n4)nc3Cl)n2)CN1, 14-membered ring, K2CO3/CsF/3A MS, DMSO, 53.1 mM, 155.0 °C) of 40%.
As to `CC1(C)C[C@@H]2CCCNc3cccc(n3)S(=O)(=O)NC(=O)c3ccc(-n4ccc(OCCC5C(C)(C)C5(C)C)n4)nc3N1C2` [Compound 185, (14S)-12,12-Dimethyl-8-{3-[2-(2,2,3,3-tetramethylcyclopropyl)ethoxy]-1H-pyrazol-1-yl}-2λ^6-thia-3,9,11,18,23-pentaazatetracyclo[17.3.1.111,14.05,10]tetracosa-1(23),5(10),6,8,19,21-hexaene-2,2,4-trione], in series [1], the EC50 was < 1000 nM and the “Max. Activity” value is “+++ (+++ is >60%)”. The compound further had a ring closure, isolated yield in series [2] (from CC(C)(C)OC(=O)N1C[C@@H](CCCNc2cccc(S(=O)(=O)NC(=O)c3ccc(-n4ccc(OCCC5C(C)(C)C5(C)C)n4)nc3Cl)n2)CC1(C)C, 15-membered ring, K2CO3/3A MS, DMSO, 37.9 mM, 160.0 °C, 2 steps) of 19%.
For the compound `CC1(C)C[C@@H]2CCCn3ccc(n3)S(=O)(=O)NC(=O)c3ccc(-n4ccc(OCCC5C6(CC6)C56CC6)n4)nc3N1C2` [Compound 187, (18S)-4-[3-(2-{Dispiro[2.0.2.1]heptan-7-yl}ethoxy)-1H-pyrazol-1-yl]-20,20-dimethyl-10λ^6-thia-1,3,9,14,22-pentaazatetracyclo[16.2.1.111,14.02,7]docosa-2,4,6,11(22),12-pentaene-8,10,10-trione], in series [1], the concentration giving a half-maximal response (EC50) is < 1000 nM and the “Max. Activity” value is given as “+++ (+++ is >60%)”. Besides, the ring closure, isolated yield in series [2] (from CC1(C)C[C@H](CCCn2ccc(S(=O)(=O)NC(=O)c3ccc(-n4ccc(OCCC5C6(CC6)C56CC6)n4)nc3Cl)n2)CN1, 14-membered ring, K2CO3/CsF/3A MS, DMSO, 26.2 mM, 155.0 °C, 18.0 h) is 72%.
Consider `CC1(C)C[C@H]2CCCNc3cccc(n3)S(=O)(=O)NC(=O)c3ccc(-n4ccc(OCCC5C6(CC6)C56CC6)n4)nc3N1C2` [Compound 194, (14R)-8-[3-(2-{Dispiro[2.0.2.1]heptan-7-yl}ethoxy)-1H-pyrazol-1-yl]-12,12-dimethyl-2λ^6-thia-3,9,11,18,23-pentaazatetracyclo[17.3.1.111,14.05,10]tetracosa-1(22),5,7,9,19(23),20-hexaene-2,2,4-trione], for which, in series [1], the EC50 was < 1000 nM and the “Max. Activity” value is “++ (++ is 30-60%)”. The ring closure, isolated yield in series [2] (from CC1(C)C[C@@H](CCCNc2cccc(S(=O)(=O)NC(=O)c3ccc(-n4ccc(OCCC5C6(CC6)C56CC6)n4)nc3Cl)n2)CN1, 15-membered ring, K2CO3, NMP, 72.4 mM, 135.0 °C, 22.0 h) stood at 57%.
With `CC1(C)C[C@@H]2CCCNc3cccc(n3)S(=O)(=O)NC(=O)c3ccc(-n4ccc(OCCC5C6(CC6)C56CC6)n4)nc3N1C2` [Compound 195, (14S)-8-[3-(2-{Dispiro[2.0.2.1]heptan-7-yl}ethoxy)-1H-pyrazol-1-yl]-12,12-dimethyl-2λ^6-thia-3,9,11,18,23-pentaazatetracyclo[17.3.1.111,14.05,10]tetracosa-1(22),5,7,9,19(23),20-hexaene-2,2,4-trione], in series [1], the EC50 was < 1000 nM and the “Max. Activity” value was “+++ (+++ is >60%)”. The compound also registered a ring closure, isolated yield in series [2] (from CC1(C)C[C@H](CCCNc2cccc(S(=O)(=O)NC(=O)c3ccc(-n4ccc(OCCC5C6(CC6)C56CC6)n4)nc3Cl)n2)CN1, 15-membered ring, K2CO3, NMP, 55.8 mM, 150.0 °C, 22.0 h) of 68%.
Turning to `CC1(C)C2CCNc3cccc(n3)S(=O)(=O)NC(=O)c3ccc(-n4ccc(OCCC5(C(F)(F)F)CC5)n4)nc3N1CC2` (stereo not drawn) [Compound 236, 23,23-Dimethyl-11-(3-{2-[1-(trifluoromethyl)cyclopropyl]ethoxy}-1H-pyrazol-1-yl)-17λ^6-thia-2,8,10,16,22-pentaazatetracyclo[16.3.1.15,8.09,14]tricosa-1(22),9,11,13,18,20-hexaene-15,17,17-trione], in series [1], the concentration for a half-maximal effect (EC50) was > 3000 nM and the “Max. Activity” value was “+ (+ is <30%)”. The ring closure, isolated yield in series [2] (from CC1(C)NCCC1CCNc1cccc(S(=O)(=O)NC(=O)c2ccc(-n3ccc(OCCC4(C(F)(F)F)CC4)n3)nc2Cl)n1, 14-membered ring, K2CO3/3A MS, DMSO, 25.1 mM, 180.0 °C, 18.0 h) turned out to be 2%.
On to `[2H]C([2H])(COc1ccn(-c2ccc3c(n2)N2C[C@@H](CCCNc4cccc(n4)S(=O)(=O)NC3=O)CC2(C)C)n1)C1C2(CC2)C12CC2` [Compound 252, (14S)-8-[3-(2-{dispiro[2.0.2.1]heptan-7-yl}-2,2-dideuterio-ethoxy)-1H-pyrazol-1-yl]-12,12-dimethyl-2λ^6-thia-3,9,11,18,23-pentaazatetracyclo[17.3.1.111,14.05,10]tetracosa-1(22),5,7,9,19(23),20-hexaene-2,2,4-trione], for which, in series [1], the concentration giving a half-maximal response (EC50) was < 1000 nM and the “Max. Activity” value is “+++ (+++ is >60%)”. Moreover, the ring closure, isolated yield in series [2] (from 2-chloro-6-[3-(2,2-dideuterio-2-dispiro[2.0.2.1]heptan-7-yl-ethoxy)pyrazol-1-yl]-N-[[3-[(3S)-5,5-dimethylpyrrolidin-3-yl]propylamino]-2-pyridyl]sulfonyl]pyridine-3-carboxamide (trifluoroacetate salt), 15-membered ring, K2CO3, NMP, 21.6 mM, 150.0 °C) is 85%.
In the case of `CC1(C)C[C@@H]2CCCNc3cccc(n3)S(=O)(=O)NC(=O)c3ccc(-n4ccc(OCC(O)CC5(C(F)(F)F)CC5)n4)nc3N1C2` (stereo partly drawn) [Compound 259, (14S)-8-(3-{2-hydroxy-3-[1-(trifluoromethyl)cyclopropyl]propoxy}-1H-pyrazol-1-yl)-12,12-dimethyl-2λ^6-thia-3,9,11,18,23-pentaazatetracyclo[17.3.1.111,14.05,10]tetracosa-1(22),5(10),6,8,19(23),20-hexaene-2,2,4-trione], in series [1], the EC50 is < 1000 nM and the “Max. Activity” value is given as “+++ (+++ is >60%)”. Moreover, the ring closure, isolated yield in series [2] (from CC(C)(C)OC(=O)N1C[C@@H](CCCNc2cccc(S(=O)(=O)NC(=O)c3ccc(-n4ccc(OCC(O)CC5(C(F)(F)F)CC5)n4)nc3Cl)n2)CC1(C)C, 15-membered ring, HCl/dioxane/DCM, then K2CO3/3A MS, DMSO, 28.6 mM, 155.0 °C, 2 steps) stood at 42%.
With `[2H]C([2H])(CCOc1ccn(-c2ccc3c(n2)N2C[C@@H](CCCNc4cccc(n4)S(=O)(=O)NC3=O)CC2(C)C)n1)C1(C(F)(F)F)CC1` [Compound 269, (14S)-12,12-Dimethyl-8-(3-{3-[1-(trifluoromethyl)cyclopropyl]-3,3-dideuterio-propoxy}-1H-pyrazol-1-yl)-2λ^6-thia-3,9,11,18,23-pentaazatetracyclo[17.3.1.111,14.05,10]tetracosa-1(22),5(10),6,8,19(23),20-hexaene-2,2,4-trione], in series [1], the EC50 was < 1000 nM and the “Max. Activity” value is reported as “+++ (+++ is >60%)”. The same compound gave a ring closure, isolated yield in series [2] (from [2H]C([2H])(CCOc1ccn(-c2ccc(C(=O)NS(=O)(=O)c3cccc(NCCC[C@@H]4CN(C(=O)OC(C)(C)C)C(C)(C)C4)n3)c(Cl)n2)n1)C1(C(F)(F)F)CC1, 15-membered ring, TFA/DCM, then K2CO3/3A MS, DMSO, 30.5 mM, 150.0 °C, 2 steps) of 24%.

As a reminder, the EC50 is the concentration needed to bring the measured effect to its halfway point.
